Experimental data: ChEMBL document CHEMBL5126519, “Tuberculosis drug discovery: Progression and future interventions in the wake of emerging resistance” (Eur J Med Chem, 2022)
Converted amounts (≈) assume the structure as drawn.

Tests used:
[1] = tested on: Mycobacterium tuberculosis; experiment: Antimycobacterial activity against Mycobacterium tuberculosis; format: functional
[2] = tested on: Mycobacterium tuberculosis; experiment: Antimycobacterial activity against drug-sensitive Mycobacterium tuberculosis; format: functional
[3] = tested on: Mycobacterium tuberculosis; experiment: Antimycobacterial activity against non-replicating Mycobacterium tuberculosis H37Rv by time kill kinetic assay; format: functional
[4] = tested on: Mycobacterium tuberculosis; experiment: Antimycobacterial activity against drug-susceptible Mycobacterium tuberculosis H37Rv; format: functional
[5] = tested on: Mycobacterium tuberculosis; experiment: Antimycobacterial activity against Mycobacterium tuberculosis H37Rv by MABA assay; format: functional
[6] = tested on: Mycobacterium tuberculosis; experiment: Antimycobacterial activity against Mycobacterium tuberculosis infected in mouse; format: functional
[7] = tested on: Mycobacterium tuberculosis; experiment: Antimycobacterial activity against Mycobacterium tuberculosis H37Rv by microplate alamar blue assay; format: functional
[8] = Inhibition of mammalian mitochondrial protein synthesis; format: mitochondria, Mitochondria
[9] = tested on: Mycobacterium tuberculosis; experiment: Antimycobacterial activity against Mycobacterium tuberculosis H37Rv by agar dilution method; format: functional
[10] = tested on: Mycobacterium tuberculosis; experiment: Antimycobacterial activity against Mycobacterium tuberculosis expressing GFP; format: functional

Work on `O[C@@H](c1cc(C(F)(F)F)nc2c(C(F)(F)F)cccc12)[C@H]1CCCCN1` [(S,R)-MEFLOQUINE] yielded an MIC [1] of 10 µM.

`CC(C)=CCC/C(C)=C/CNCCNC1C2CC3CC(C2)CC1C3` (stereo not drawn) [SQ109] gave an MIC [1] of 0.78 µg/mL.

In the case of `COc1c(N2C[C@@H]3CCCN[C@@H]3C2)c(F)cc2c(=O)c(C(=O)O)cn(C3CC3)c12` [MOXIFLOXACIN], the MIC [1] is reported as 1.1 µM.

Molecule `CCNC(=O)Nc1nc2nc(-c3cnc(C(C)(C)O)nc3)c(F)c([C@H]3CCCO3)c2[nH]1` has an MIC [2] of 0.03 µg/mL (≈ 0.0699 µM).

For `Cc1cc(/C=C/c2ccc3cc(N(C)C)ccc3[n+]2C)c(C)n1-c1ccccc1.Cc1cc(/C=C/c2ccc3cc(N(C)C)ccc3[n+]2C)c(C)n1-c1ccccc1.O=C(O)c1cc2ccccc2c(Cc2c(O)c(C(=O)O)cc3ccccc23)c1O`, the MIC99 [2] was 1.55 µg/mL.

`COc1ccc(CCN(C)CCCC(C#N)(c2ccc(OC)c(OC)c2)C(C)C)cc1OC` (stereo not drawn) [VERAPAMIL] showed an MIC [3] of 512 µM (≈ 233 µg/mL).

Molecule `C[C@]1(COc2ccc(N3CCC(Oc4ccc(OC(F)(F)F)cc4)CC3)cc2)Cn2cc([N+](=O)[O-])nc2O1` [DELAMANID] has an MIC [4] of 0.0005 µg/mL (≈ 0.000935 µM).

`CCc1nc2ccc(Cl)cn2c1C(=O)NCc1ccc(N2CCC(c3ccc(OC(F)(F)F)cc3)CC2)cc1` [TELACEBEC] showed an MIC [1] of 0.008 µg/mL.

`CN(C)[C@@H]1C(O)=C(C(=O)NCNCCCC[C@H](N)C(=O)O)C(=O)[C@@]2(O)C(O)=C3C(=O)c4c(O)cccc4[C@@](C)(O)[C@H]3C[C@@H]12` [LYMECYCLINE] gave an MIC [1] of 166 µM.

`NC[C@H]1OB(O)c2c(OCCO)ccc(Cl)c21` [GANFEBOROLE] gave an MIC [5] of 0.08 µM and an ED99 [6] of 0.4 mg/kg.

With `CC(=O)Oc1ccccc1C(=O)Nc1ncc([N+](=O)[O-])s1` [NITAZOXANIDE] the MIC [1] was 33.2 µM.

With `CC1=NN(c2ccc(C)c(C)c2)C(=O)/C1=N\Nc1cccc(-c2cccc(C(=O)O)c2)c1O` [ELTROMBOPAG] the MIC [7] was 6.25 µM (≈ 2.77 µg/mL).

Work on `CC(C)(C)NCC(O)CSc1nc(-c2ccc(C(N)=O)s2)cs1` (stereo not drawn) [AROTINOLOL] yielded an MIC [7] of 3.12 µM (≈ 1.16 µg/mL).

Work on `COC(=O)NC[C@H]1CN(c2ccc(N3CC4(COC4)C3)c(F)c2)C(=O)O1` [TBI-223] yielded an IC50 [8] of over 74 µM.

`CSc1ccc2c(c1)N(CCC1CCCCN1C)c1ccccc1S2` (stereo not drawn) [THIORIDAZINE] gave an MIC [1] of 19.6 µM.

Molecule `CC(=O)NC[C@H]1CN(c2ccc(N3CCSCC3)c(F)c2)C(=O)O1` [SUTEZOLID] has an MIC [1] of 0.062 µg/mL.

In the case of `O=[N+]([O-])c1cn2c(n1)OC[C@@H](OCc1ccc(OC(F)(F)F)cc1)C2` [PRETOMANID], the MIC [2] is reported as 0.015 µg/mL (≈ 0.0418 µM).

Work on `Cc1c(C(=O)OCc2ccccc2)[n+]([O-])c2cc(F)c(-n3cncn3)cc2[n+]1[O-]` yielded an MIC [5] of at most 0.25 µg/mL.

For `C[C@H]1COC2(CCN(c3nc(=O)c4cc(C(F)(F)F)cc([N+](=O)[O-])c4s3)CC2)O1` [BTZ-043], the MIC [1] was 0.001 µg/mL.

With `COc1nc2ccc(Br)cc2cc1[C@@H](c1ccccc1)[C@@](O)(CCN(C)C)c1cccc2ccccc12` [BEDAQUILINE] the MIC [9] was 0.015 µg/mL (≈ 0.027 µM).

For `COCCNC(=O)c1cn(Cc2ccc(F)cc2)c2ccc([N+](=O)[O-])cc2c1=O`, the MIC [10] was under 0.244 µM.

`O=c1nc(N2CCN(CC3CCCCC3)CC2)sc2c([N+](=O)[O-])cc(C(F)(F)F)cc12` [MACOZINONE] gave an MIC [1] of 0.00019 µg/mL.
